From paper PMC8142146 (Bioorganic chemistry, 2020) come the findings set out here.

What all share (type): biochemical
Test [1] deals with PARP1 (Homo sapiens, UniProt P09874). Put plainly: BPS PARP1 Chemiluminescent Activity Assay Kit.
Test [2] addresses PARP2 (Homo sapiens, UniProt Q9UGN5). Put plainly: PARP-isoform screening, Chemiluminescent Activity Assay Kit. As to conditions: at 0.5 μM concentration.
For test [3], the target named is T1, PARP10 (Homo sapiens, UniProt Q53GL7).
T1 sequence (Q53GL7 1-1025): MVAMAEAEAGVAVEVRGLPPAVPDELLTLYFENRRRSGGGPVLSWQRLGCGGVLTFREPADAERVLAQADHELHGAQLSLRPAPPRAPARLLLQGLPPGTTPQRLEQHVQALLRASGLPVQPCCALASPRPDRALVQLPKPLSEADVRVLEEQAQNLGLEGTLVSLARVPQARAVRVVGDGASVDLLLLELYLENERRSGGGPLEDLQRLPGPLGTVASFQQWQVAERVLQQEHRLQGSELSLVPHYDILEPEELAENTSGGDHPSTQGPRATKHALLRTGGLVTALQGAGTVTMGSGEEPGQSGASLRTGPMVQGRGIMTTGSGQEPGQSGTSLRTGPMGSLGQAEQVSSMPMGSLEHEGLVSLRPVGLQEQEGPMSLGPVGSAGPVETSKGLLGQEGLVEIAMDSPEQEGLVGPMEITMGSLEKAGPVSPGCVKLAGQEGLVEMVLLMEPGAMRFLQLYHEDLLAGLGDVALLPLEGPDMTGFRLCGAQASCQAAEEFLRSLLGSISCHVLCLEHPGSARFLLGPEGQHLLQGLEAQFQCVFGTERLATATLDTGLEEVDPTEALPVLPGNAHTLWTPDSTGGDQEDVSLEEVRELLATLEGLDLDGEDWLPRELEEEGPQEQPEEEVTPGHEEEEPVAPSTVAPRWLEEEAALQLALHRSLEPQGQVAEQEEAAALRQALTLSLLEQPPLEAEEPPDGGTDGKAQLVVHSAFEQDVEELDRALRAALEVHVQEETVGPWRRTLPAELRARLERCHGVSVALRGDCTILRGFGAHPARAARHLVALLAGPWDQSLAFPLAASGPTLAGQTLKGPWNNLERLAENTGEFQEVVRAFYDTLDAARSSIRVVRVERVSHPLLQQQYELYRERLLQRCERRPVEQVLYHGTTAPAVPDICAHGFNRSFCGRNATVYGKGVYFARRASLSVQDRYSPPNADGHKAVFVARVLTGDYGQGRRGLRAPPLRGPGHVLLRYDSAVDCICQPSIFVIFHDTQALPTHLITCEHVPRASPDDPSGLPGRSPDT
The description is as above. The conditions noted are these: Figure 5.

The target in test [4] is PARP14 (Homo sapiens, UniProt Q460N5). The description is as above. The conditions noted are these: Figure 5.
The target of test [5] is T2, TNKS1 (PARP5A) (Homo sapiens, UniProt O95271).
T2 sequence (O95271 1-1327): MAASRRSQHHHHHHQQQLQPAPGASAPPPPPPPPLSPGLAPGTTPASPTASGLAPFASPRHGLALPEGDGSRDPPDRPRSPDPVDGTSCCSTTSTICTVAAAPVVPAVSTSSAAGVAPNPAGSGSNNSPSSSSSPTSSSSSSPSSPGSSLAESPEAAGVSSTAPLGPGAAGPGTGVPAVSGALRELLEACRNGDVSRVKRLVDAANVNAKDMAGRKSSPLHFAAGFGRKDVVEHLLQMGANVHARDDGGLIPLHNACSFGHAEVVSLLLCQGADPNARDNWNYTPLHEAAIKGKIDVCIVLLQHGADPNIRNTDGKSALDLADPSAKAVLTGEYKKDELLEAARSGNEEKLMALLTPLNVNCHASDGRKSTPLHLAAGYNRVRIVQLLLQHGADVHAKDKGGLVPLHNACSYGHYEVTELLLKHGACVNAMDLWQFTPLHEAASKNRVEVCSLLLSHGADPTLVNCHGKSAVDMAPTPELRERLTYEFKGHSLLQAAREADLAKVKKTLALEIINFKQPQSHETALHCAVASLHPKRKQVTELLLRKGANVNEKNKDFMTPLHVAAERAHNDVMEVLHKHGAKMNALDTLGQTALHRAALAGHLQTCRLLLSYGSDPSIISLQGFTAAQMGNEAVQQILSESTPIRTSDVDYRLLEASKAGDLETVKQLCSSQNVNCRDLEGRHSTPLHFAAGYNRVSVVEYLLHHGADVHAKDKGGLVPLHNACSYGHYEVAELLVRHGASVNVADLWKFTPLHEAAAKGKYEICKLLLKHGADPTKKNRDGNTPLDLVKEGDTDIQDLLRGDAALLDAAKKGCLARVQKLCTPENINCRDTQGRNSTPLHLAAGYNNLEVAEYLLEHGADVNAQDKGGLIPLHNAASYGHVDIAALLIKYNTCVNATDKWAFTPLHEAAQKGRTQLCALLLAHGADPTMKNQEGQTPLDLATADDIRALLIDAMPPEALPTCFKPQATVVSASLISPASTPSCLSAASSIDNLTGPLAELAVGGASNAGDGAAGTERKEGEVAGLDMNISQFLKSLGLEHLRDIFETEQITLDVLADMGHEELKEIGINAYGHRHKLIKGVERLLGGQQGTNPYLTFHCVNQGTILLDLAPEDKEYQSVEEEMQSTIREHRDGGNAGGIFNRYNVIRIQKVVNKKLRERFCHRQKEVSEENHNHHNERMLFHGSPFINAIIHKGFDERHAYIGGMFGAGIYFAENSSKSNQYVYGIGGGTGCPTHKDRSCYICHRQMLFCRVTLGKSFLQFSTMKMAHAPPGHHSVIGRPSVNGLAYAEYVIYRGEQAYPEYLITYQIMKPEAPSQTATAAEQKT
The test is described as above. The conditions noted are these: Figure 5.

Chain of PARP2 (Q9UGN5 whole entry, canonical isoform): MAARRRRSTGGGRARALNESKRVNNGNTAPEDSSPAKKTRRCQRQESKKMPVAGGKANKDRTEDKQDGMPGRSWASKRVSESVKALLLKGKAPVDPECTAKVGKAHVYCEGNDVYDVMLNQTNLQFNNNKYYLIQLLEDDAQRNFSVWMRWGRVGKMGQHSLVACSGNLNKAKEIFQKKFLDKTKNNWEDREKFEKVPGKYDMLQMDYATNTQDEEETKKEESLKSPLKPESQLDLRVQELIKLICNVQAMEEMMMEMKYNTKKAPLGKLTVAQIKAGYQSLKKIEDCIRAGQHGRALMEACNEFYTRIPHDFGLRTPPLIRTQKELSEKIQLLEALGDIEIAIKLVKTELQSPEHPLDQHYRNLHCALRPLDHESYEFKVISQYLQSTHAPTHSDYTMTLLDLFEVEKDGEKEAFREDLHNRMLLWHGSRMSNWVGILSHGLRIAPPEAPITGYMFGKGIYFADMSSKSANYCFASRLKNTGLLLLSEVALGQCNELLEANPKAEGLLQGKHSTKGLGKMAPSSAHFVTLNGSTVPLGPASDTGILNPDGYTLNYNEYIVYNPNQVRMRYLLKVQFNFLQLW
Chain of PARP14 (Q460N5 whole entry): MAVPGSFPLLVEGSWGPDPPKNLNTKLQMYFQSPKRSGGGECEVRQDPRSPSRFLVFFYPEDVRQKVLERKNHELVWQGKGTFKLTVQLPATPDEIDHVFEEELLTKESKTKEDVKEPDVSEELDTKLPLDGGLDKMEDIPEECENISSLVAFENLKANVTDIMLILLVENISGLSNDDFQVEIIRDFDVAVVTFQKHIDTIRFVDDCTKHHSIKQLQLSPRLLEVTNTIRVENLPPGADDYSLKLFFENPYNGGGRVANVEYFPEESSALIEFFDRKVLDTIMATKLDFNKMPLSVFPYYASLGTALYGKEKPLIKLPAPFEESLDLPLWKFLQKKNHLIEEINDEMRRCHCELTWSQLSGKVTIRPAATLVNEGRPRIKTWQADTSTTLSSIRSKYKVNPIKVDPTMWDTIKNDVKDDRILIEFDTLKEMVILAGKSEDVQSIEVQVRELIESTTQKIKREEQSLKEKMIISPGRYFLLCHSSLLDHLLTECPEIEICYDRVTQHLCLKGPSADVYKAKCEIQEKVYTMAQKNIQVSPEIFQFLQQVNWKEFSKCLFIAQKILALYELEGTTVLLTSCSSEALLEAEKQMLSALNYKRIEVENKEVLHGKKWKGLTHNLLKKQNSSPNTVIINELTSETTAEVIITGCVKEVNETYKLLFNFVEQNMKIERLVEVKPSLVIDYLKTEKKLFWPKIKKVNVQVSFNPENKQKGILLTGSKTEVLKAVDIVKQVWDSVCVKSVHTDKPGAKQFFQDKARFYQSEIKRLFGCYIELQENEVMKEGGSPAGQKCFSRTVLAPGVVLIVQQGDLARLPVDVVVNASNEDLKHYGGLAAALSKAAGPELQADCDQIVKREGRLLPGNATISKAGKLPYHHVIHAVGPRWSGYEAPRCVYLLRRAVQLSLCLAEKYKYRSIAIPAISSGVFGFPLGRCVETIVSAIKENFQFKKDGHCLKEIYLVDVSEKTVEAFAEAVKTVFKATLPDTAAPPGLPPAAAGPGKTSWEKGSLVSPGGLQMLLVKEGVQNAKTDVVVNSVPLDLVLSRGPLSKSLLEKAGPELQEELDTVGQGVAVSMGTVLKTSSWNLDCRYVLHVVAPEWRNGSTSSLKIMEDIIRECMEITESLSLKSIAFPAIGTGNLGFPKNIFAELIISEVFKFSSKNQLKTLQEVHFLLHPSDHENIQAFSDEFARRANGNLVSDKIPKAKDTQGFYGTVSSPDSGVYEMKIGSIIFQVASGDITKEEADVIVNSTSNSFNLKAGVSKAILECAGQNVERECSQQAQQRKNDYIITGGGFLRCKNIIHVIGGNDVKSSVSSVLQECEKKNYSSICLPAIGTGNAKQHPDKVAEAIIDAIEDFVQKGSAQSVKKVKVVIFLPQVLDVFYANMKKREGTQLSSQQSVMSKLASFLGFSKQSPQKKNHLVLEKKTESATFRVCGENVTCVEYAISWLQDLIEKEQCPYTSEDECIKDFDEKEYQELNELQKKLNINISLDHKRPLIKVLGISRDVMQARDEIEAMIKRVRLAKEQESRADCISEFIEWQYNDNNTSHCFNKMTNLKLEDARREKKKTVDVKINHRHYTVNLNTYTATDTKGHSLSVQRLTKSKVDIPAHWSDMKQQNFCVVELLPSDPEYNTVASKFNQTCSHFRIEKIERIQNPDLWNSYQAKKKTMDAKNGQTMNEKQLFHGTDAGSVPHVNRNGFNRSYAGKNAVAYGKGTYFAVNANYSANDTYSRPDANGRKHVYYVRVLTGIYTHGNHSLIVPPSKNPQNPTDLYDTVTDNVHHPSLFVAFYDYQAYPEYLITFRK
Chain of PARP1 (P09874 whole entry, canonical isoform): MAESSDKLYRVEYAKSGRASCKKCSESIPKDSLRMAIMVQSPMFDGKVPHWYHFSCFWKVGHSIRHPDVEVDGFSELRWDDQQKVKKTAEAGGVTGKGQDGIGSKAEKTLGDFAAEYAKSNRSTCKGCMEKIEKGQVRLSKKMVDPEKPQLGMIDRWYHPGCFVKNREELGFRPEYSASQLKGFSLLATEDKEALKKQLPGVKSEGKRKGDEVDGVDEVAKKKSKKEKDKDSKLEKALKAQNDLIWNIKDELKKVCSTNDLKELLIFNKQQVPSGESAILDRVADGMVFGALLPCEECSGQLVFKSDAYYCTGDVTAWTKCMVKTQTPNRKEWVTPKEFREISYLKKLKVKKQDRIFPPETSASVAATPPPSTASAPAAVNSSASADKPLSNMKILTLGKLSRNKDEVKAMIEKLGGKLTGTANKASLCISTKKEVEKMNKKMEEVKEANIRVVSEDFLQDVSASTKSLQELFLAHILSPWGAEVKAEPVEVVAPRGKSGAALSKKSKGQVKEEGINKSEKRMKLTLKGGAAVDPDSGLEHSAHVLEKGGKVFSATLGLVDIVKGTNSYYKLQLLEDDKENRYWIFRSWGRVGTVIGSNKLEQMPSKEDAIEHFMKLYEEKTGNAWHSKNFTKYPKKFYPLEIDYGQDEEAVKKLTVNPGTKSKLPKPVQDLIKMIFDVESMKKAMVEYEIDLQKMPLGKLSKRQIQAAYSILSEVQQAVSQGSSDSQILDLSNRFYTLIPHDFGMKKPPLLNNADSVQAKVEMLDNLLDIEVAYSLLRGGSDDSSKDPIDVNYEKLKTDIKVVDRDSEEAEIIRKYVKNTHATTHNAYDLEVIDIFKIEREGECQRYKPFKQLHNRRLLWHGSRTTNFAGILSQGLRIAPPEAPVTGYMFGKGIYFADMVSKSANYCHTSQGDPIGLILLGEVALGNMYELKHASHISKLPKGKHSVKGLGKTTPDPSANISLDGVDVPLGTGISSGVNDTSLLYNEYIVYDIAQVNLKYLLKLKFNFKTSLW

For `NC(=O)c1cccc2c1O/C(=C\c1ccc(O)cc1)C(=O)N2` [Compound 49, (Z)-2-(4-Hydroxybenzylidene)-3-oxo-3,4-dihydro-2H-benzo[b][1,4]oxazine-8-carboxamide], in test [1], the IC50 came to 82 ± 45 nM. The PARP2 inhibition entry in test [2] is reported as “complete inhibition”. Further, in test [3], the PARP10 inhibition result is recorded as “did not interfere”. The PARP14 inhibition entry in test [4] is “did not interfere”. For the same molecule, in test [5], the TNKS1 inhibition result is “substantially inhibited”.

In general, IC50 refers to the midpoint of a concentration-inhibition curve.
